Patent US20240002395A1, “COMPOUNDS AND THEIR USE FOR TREATING NEUROPATHIC PAIN” (The Johns Hopkins University, priority 2020, published 2024)

Tests used:
human MrgprX1 = target: T1, human MrgprX1 (Homo sapiens, UniProt Q96LB2); experiment: MrgprX1 positive allosteric modulator (PAM) calcium FLIPR assay in HEK293 cells; format: cell-based; conditions: PAM activity in presence of EC20 concentration of BAM8-22; HEK293 cells stably transfected with human MrgprX1
T1 construct: expressed in transfected cells
T1 sequence (Q96LB2 whole entry): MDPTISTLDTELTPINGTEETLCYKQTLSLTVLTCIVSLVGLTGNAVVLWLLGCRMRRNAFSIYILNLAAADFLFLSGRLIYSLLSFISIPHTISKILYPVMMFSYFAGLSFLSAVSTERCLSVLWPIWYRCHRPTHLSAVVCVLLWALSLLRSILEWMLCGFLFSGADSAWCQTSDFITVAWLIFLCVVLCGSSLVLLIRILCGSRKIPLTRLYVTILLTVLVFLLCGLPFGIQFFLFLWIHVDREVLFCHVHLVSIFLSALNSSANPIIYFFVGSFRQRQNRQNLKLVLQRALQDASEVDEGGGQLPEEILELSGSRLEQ
Procedure: HEK293 cells stably transfected with human MrgprX1 were plated onto poly-D-lysine-coated, black-walled, 96-well plates at a seeding density of 12,000 cells/well and grown for two days. On the day of the experiment, cells were incubated with Fluo-4 AM 2 μM, pluronic acid 0.04% and Trypan Red 1% in HBSS (pH 7.4, 100 μL) for 1 h at 37° C. For each different passage of cells, a BAM8-22 dose response was first conducted and the BAM8-22 EC20 determined. Test compounds were then dissolved and serially diluted in DMSO, further diluted with Trypan Red (1%)-containing HBSS (50 μL) and added to cells (0.33% DMSO concentration by volume) to first monitor for agonist activity. After 2.5 min, BAM8-22 at 4-fold EC20 (50 μL) was added to cells (0.25% DMSO concentration by volume) and the cells imaged on the FLIPR for an additional 2 minutes to monitor the test compounds for PAM activity. Finally, data were normalized to fluorescence signals obtained from 250 nM of BAM8-22 (maximum) and BAM8-22 at its EC20 concentration (minimum). EC50 of a test compound was defined as the concentration required to provoke a response halfway between the minimum and maximum response in the presence of EC20 concentration of BAM8-22.

EC50 (human MrgprX1)	melting point	SMILES
300 nM	152 °C	CC(C)(C)c1sc2ncnc(OC3CC4CCC3C4)c2c1-c1ccc(Cl)c(Cl)c1 (stereo not shown) [Compound 7ad, 4-(bicyclo[2.2.1]heptan-2-yloxy)-6-tert-butyl-5-(3,4-dichlorophenyl)thieno[2,3-d]pyrimidine]
100 nM	144 °C	CC(C)(C)c1sc2ncnc(OC3CCCCC3F)c2c1-c1ccc(Cl)c(Cl)c1 (stereo not shown) [Compound 7ag, 6-tert-butyl-5-(3,4-dichlorophenyl)-4-(2-fluorocyclohexyloxy)thieno[2,3-d]pyrimidine]
300 nM	128 °C	CC(C)(C)c1sc2ncnc(OC3CCCCC3(C)C)c2c1-c1ccc(Cl)c(Cl)c1 (stereo not shown) [Compound 7ah, 6-tert-butyl-5-(3,4-dichlorophenyl)-4-(2,2-dimethylcyclohexyloxy)thieno[2,3-d]pyrimidine]
70 nM	146 °C	CC(C)(C)c1sc2ncnc(Oc3ccccc3OC(F)(F)F)c2c1-c1ccc(F)c(F)c1 [Compound 7am, 6-tert-butyl-5-(3,4-difluorophenyl)-4-(2-(trifluoromethoxy)phenoxy)thieno[2,3-d]pyrimidine]
80 nM	136 °C	CC(C)(C)c1sc2ncnc(Oc3ccccc3OC(F)(F)F)c2c1-c1ccc(Cl)cc1 [Compound 7an, 6-tert-butyl-5-(4-chlorophenyl)-4-(2-(trifluoromethoxy)phenoxy)thieno[2,3-d]pyrimidine]
70 nM	186 °C	CC(C)(C)c1sc2ncnc(Oc3c(F)cccc3F)c2c1-c1ccc(F)cc1 [Compound 7at, 6-tert-butyl-4-(2,6-difluorophenoxy)-5-(4-fluorophenyl)thieno[2,3-d]pyrimidine]
100 nM	150 °C	CC(C)(C)c1sc2ncnc(Oc3ccccc3OC(F)(F)F)c2c1-c1cccc(F)c1 [Compound 7av, 6-tert-butyl-5-(3-fluorophenyl)-4-(2-(trifluoromethoxy)phenoxy)thieno[2,3-d]pyrimidine]
100 nM	180 °C	CC(C)(C)c1sc2ncnc(Oc3c(F)cccc3F)c2c1-c1cccc(F)c1 [Compound 7aw, 6-tert-butyl-4-(2,6-difluorophenoxy)-5-(3-fluorophenyl)thieno[2,3-d]pyrimidine]
30 nM	115 °C	CC(C)(C)c1sc2ncnc(Oc3c(F)cccc3OC(F)(F)F)c2c1N1CCCC1 [Compound 7bf, 6-(tert-butyl)-4-(2-fluoro-6-(trifluoromethoxy)phenoxy)-5-(pyrrolidin-1-yl)thieno[2,3-d]pyrimidine]
40 nM	133 °C	CC(C)(C)c1sc2ncnc(Oc3c(F)cccc3OC(F)(F)F)c2c1N1CCCCC1 [Compound 7bh, 6-(tert-butyl)-4-(2-fluoro-6-(trifluoromethoxy)phenoxy)-5-(piperidin-1-yl)thieno[2,3-d]pyrimidine]
> 100000 nM		CC(C)(C)c1sc2ncnc(Oc3ccc([N+](=O)[O-])cc3OC(F)(F)F)c2c1-c1ccc(Cl)c(Cl)c1 [Compound 7f, 6-tert-butyl-5-(3,4-dichlorophenyl)-4-(4-nitro-2-(trifluoromethoxy)phenoxy)thieno[2,3-d]pyrimidine]
	173 °C	COc1ncccc1Oc1ncnc2sc(C(C)(C)C)c(-c3ccc(Cl)c(Cl)c3)c12 [Compound 7i, 6-tert-butyl-5-(3,4-dichlorophenyl)-4-(2-methoxypyridin-3-yloxy)thieno[2,3-d]pyrimidine]

The next lines start with the molecule.

SMILES	EC50 (human MrgprX1)	melting point
CC1CCCCC1Oc1ncnc2sc(C(C)(C)C)c(-c3ccc(Cl)c(Cl)c3)c12 (mixture of isomers) [Compound 7ac, 6-tert-butyl-5-(3,4-dichlorophenyl)-4-(2-methylcyclohexyloxy)thieno[2,3-d]pyrimidine]	100 nM	
Cc1ccccc1Oc1ncnc2oc(-c3ccccc3)cc12 [B, 6-Phenyl-4-(o-tolyloxy)furo[2,3-d]pyrimidine, reference compound]	1000 nM	
Cc1cccc(Oc2ncnc3oc(-c4ccccc4)cc23)c1C [C, 4-(2,3-Dimethylphenoxy)-6-phenylfuro[2,3-d]pyrimidine, reference compound]	70000 nM	
CC(C)(C)c1sc2ncnc(OC3CCCCC3)c2c1-c1ccc(Cl)c(Cl)c1 [Compound 7aa, 6-tert-butyl-4-(cyclohexyloxy)-5-(3,4-dichlorophenyl)thieno[2,3-d]pyrimidine]	100 nM	121 °C
CN1CCCC(Oc2ncnc3sc(C(C)(C)C)c(-c4ccc(Cl)c(Cl)c4)c23)C1 (stereo not shown) [Compound 7ab, 6-tert-butyl-5-(3,4-dichlorophenyl)-4-(1-methylpiperidin-3-yloxy)thieno[2,3-d]pyrimidine]	6000 nM	
CC(C)(C)c1sc2ncnc(OC3CCCCCC3)c2c1-c1ccc(Cl)c(Cl)c1 [Compound 7ae, 6-tert-butyl-4-(cycloheptyloxy)-5-(3,4-dichlorophenyl)thieno[2,3-d]pyrimidine]	400 nM	
CC(C)(C)c1sc2ncnc(OC3CCCCC3C(F)(F)F)c2c1-c1ccc(Cl)c(Cl)c1 (stereo not shown) [Compound 7af, 6-tert-butyl-5-(3,4-dichlorophenyl)-4-(2-(trifluoromethyl)cyclohexyloxy)thieno[2,3-d]pyrimidine]	100 nM	139 °C
CC(C)(C)c1sc2ncnc(OC3(C(F)(F)F)CCCCC3)c2c1-c1ccc(Cl)c(Cl)c1 [Compound 7ai, 6-tert-butyl-5-(3,4-dichlorophenyl)-4-(1-(trifluoromethyl)cyclohexyloxy)thieno[2,3-d]pyrimidine]	> 10000 nM	142 °C
CC(C)(C)c1sc2ncnc(Oc3ccccc3F)c2c1-c1ccc(F)c(F)c1 [Compound 7aj, 6-tert-butyl-5-(3,4-difluorophenyl)-4-(2-fluorophenoxy)thieno[2,3-d]pyrimidine]		171 °C
CC(C)(C)c1sc2ncnc(Oc3c(F)cccc3F)c2c1-c1ccc(F)c(F)c1 [Compound 7ak, 6-tert-butyl-4-(2,6-difluorophenoxy)-5-(3,4-difluorophenyl)thieno[2,3-d]pyrimidine]	70 nM	185 °C
CC(C)(C)c1sc2ncnc(Oc3c(F)cccc3F)c2c1-c1ccc(Cl)cc1 [Compound 7ap, 6-tert-butyl-5-(4-chlorophenyl)-4-(2,6-difluorophenoxy)thieno[2,3-d]pyrimidine]	30 nM	176 °C
CC(C)(C)c1sc2ncnc(Oc3ccccc3OC(F)(F)F)c2c1-c1cccc(Cl)c1 [Compound 7aq, 6-tert-butyl-5-(3-chlorophenyl)-4-(2-(trifluoromethoxy)phenoxy)thieno[2,3-d]pyrimidine]	100 nM	129 °C
CC(C)(C)c1sc2ncnc(Oc3c(F)cccc3OC(F)(F)F)c2c1-c1cccc(Cl)c1 [Compound 7ar, 6-tert-butyl-5-(3-chlorophenyl)-4-(2-fluoro-6-(trifluoromethoxy)phenoxy)thieno[2,3-d]pyrimidine]	30 nM	126 °C
CC(C)(C)c1sc2ncnc(Oc3c(F)cccc3F)c2c1-c1cccc(Cl)c1 [Compound 7as, 6-tert-butyl-5-(3-chlorophenyl)-4-(2,6-difluorophenoxy)thieno[2,3-d]pyrimidine]	50 nM	146 °C
CC(C)(C)c1sc2ncnc(Oc3ccccc3F)c2c1-c1ccc(F)cc1 [Compound 7au, 6-tert-butyl-4-(2-fluorophenoxy)-5-(4-fluorophenyl)thieno[2,3-d]pyrimidine]	300 nM	194 °C
CC(C)(C)c1sc2ncnc(Sc3ccccc3OC(F)(F)F)c2c1-c1ccc(Cl)c(Cl)c1 [Compound 7ax, 6-tert-butyl-5-(3,4-dichlorophenyl)-4-(2-(trifluoromethoxy)phenylthio)thieno[2,3-d]pyrimidine]	200 nM	165 °C
Cc1nc(Oc2ccccc2)c2ccsc2n1 [Compound 7ay, 2-methyl-4-phenoxythieno[2,3-d]pyrimidine]	6000 nM	100 °C
CCOC(=O)c1c(C(C)(C)C)sc2ncnc(Oc3c(F)cccc3OC(F)(F)F)c12 [Compound 7be, Ethyl 6-(tert-butyl)-4-(2-fluoro-6-(trifluoromethoxy)phenoxy)thieno[2,3 d]pyrimidine-5-carboxylate]	60 nM	
CC1CCCN1c1c(C(C)(C)C)sc2ncnc(Oc3c(F)cccc3OC(F)(F)F)c12 (stereo not shown) [Compound 7bg, 6-(tert-butyl)-4-(2-fluoro-6-(trifluoromethoxy)phenoxy)-5-(2-methylpyrrolidin-1-yl)thieno[2,3-d]pyrimidine]	70 nM	
CC(C)(C)c1sc2ncnc(Oc3ccccc3C#N)c2c1-c1ccc(Cl)c(Cl)c1 [Compound 7v, 2-(6-tert-butyl-5-(3,4-dichlorophenyl)thieno[2,3-d]pyrimidin-4-yloxy)benzonitrile]	500 nM	
CN(C)C(=O)COc1ncnc2scc(-c3ccc(F)cc3)c12 [Compound A, 2-((5-(4-Fluorophenyl)thieno[2,3-d]pyrimidin-4-yl)oxy)-N,N-dimethylacetamide, reference compound]	> 100000 nM	
Cc1ccc(Oc2ncnc3sccc23)cc1 [E, 4-(p-Tolyloxy)thieno[2,3-d]pyrimidine, reference compound]	900 nM	
